Measurements from PubChem BioAssay AID2060624 (Molecular Pharmacology Branch, DTP, NCI, 2025).
pIC50: −log10 of the molar value. “And” between values parts separate entries of the source, which are not always exact repeats. Equal entries are not always repeated.

System: 217524-143-R1-J4-PDC spheroids with HUVEC/MSC, viability
Test: Anticancer human tumor 217524-143-R1-J4-PDC patient-derived pancreatic carcinoma cell line growth inhibition [CLK]
Conditions: for viability, T/C: stronger effect = lower value; for pIC50: curve of compound
Source text: A high-throughput screen of multi-cell type tumor spheroids was designed to identify active combinations of […] and targeted small molecules. Complex spheroids include a stromal component modeled by human endothelial cells (HUVEC) and fibroblasts modeled by human mesenchymal stem cells (MSCs). The concentration ranges selected for each drug and investigational agent were based upon clinically achievable concentrations if the clinical Cmax of the agent was known.
Compounds. The drugs and investigational agents: cirtuvivint (SM08502; NSC835563), CC-671 (NSC850746), vemurafenib (NSC761431), tapotoclax (NSC804041), sotorasib (NSC818433), adagrasib (NSC831453), MRTX-1133 (NSC836407), BAY2416964 (NSC825713), copanlisib (NSC816437), inavolisib (NSC800729), abemaciclib (NSC768073), osimertinib (NSC779217), entinostat (NSC756642), eltanexor (KPT-8602, NSC794443), venetoclax (NSC766270), ceralasertib (NSC777638), bortezomib (NSC756655), olaparib (NSC753686), talazoparib (NSC767125), alisertib (NSC759677), peposertib (NSC802822), gemcitabine (NSC613327), 5-fluorouracil (NSC19893), SN-38 (NSC673596), oxaliplatin (NSC266046), paclitaxel (NSC125973), and doxorubicin (NSC123127), were obtained from the National Cancer Institute (NCI) Developmental Therapeutics Program Chemical Repository. The FDA-approved anticancer drug set is available from the Developmental Therapeutics Program at https://dtp.cancer.gov/organization/dscb/obtaining/available plates.htm. […] The stock solutions were prepared in dimethyl sulfoxide (DMSO, Sigma-Aldrich, St. Louis, MO, cat. D2650), except for the platinum complexes which were prepared in saline (Quality Biological, Gaithersburg, MD, cat. 114-055-101), at 800-fold the tested concentration and stored at -70 degrees C prior to their use. All drugs and investigational agents were tested over a range starting from a high concentration at or near the clinical Cmax and decreasing in half-log increments. If the clinical Cmax for an agent had not been determined, the highest concentration tested was 10 microM.
Cell Culture. All cells were maintained in an incubator at 37 degrees C and 5% CO2 with 95% humidity. The PDC lines were cultured according to standard operating procedures established by the NCI PDMR. Briefly, all PDCs were thawed and cultured in Matrigel-coated flasks prepared with a working solution of 1X Ham's F-12 nutrient mix, without supplementation (Invitrogen, Waltham, MA, cat. 11765054), 100 U/mL penicillin-streptomycin (Invitrogen, cat. 15140122), and 2.5% Matrigel (Corning Inc., Corning, NY, cat. 354248) for the first three passages. The 947758-054-R-J2-PDC line was cultured in 6B/Colon 1A media, which includes advanced DMEM/F-12 (Thermo Fisher Scientific, cat. 12634028), 10 mM HEPES (Thermo Fisher Scientific, cat. 15630080), 1X GlutaMAX supplement (Thermo Fisher Scientific, cat. 35050061), 0.1 mg/mL primocin (InvivoGen, cat. ant-pm-2), 10% defined fetal bovine serum, heat inactivated (HyClone Laboratories Inc., cat. SH30070.03HI), 1.25 mM N-Acetyl-L-cysteine (Sigma-Aldrich, cat. A9165), 10 mM nicotinamide (Sigma-Aldrich, cat. N0636), 1X B-27 supplement (Thermo Fisher Scientific, cat. 17504044), 1X N-2 supplement (Thermo Fisher Scientific, cat. 17502048), and 10 microM Y-27632 dihydrochloride (Tocris Bioscience, cat. 1254). The 876862-298-R-J1-PDC was cultured in 6E media, which includes all 6B/Colon 1A media components plus 50% L-WRN conditioned media (ATCC, cat. CRL-3276), 50 ng/mL recombinant human EGF recombinant protein (hEGF; Thermo Fisher Scientific, cat. PHG0311), 10 ng/mL recombinant human fibroblast growth factor 10 (hGFG-10; PeproTech, cat. 100-26), 1 ng/mL recombinant human fibroblast growth factor 2 (hFGF-2; PeproTech, cat. 100-18B), and 1 µM prostaglandin E2 (PGE2; Tocris, cat. 2296). The 227483-062-R1-J1-PDC line was cultured in Panc media, containing all 6E components except hFGF-2, with the addition of 500 nM SB-431542 (Selleckchem, cat. S1067) and 10 nM gastrin (Tocris, cat. 3006). […]
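Also: spheroids exposed to agents for seven days before reading.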
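For viability, T/C in this document: 100% = DMSO vehicle control viability.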

SMILES	viability, T/C (compound 0.0316 µM)	viability, T/C (compound 0.1 µM)	viability, T/C (compound 0.316 µM)	viability, T/C (compound 1 µM)	viability, T/C (compound 3.16 µM)	viability, T/C (compound 10 µM)	pIC50	viability, T/C (compound 0.000949 µM)	viability, T/C (compound 0.003 µM)	viability, T/C (compound 0.00949 µM)	viability, T/C (compound 0.03 µM)	viability, T/C (compound 0.0949 µM)	viability, T/C (compound 0.3 µM)	viability, T/C (compound 0.00316 µM)	viability, T/C (compound 0.01 µM)	IC50 (compound alone, run of 08/01/2023)	viability, T/C (compound 0.000316 µM)	viability, T/C (compound 0.001 µM)	viability, T/C (compound 0.949 µM)	viability, T/C (compound 3 µM)
C#Cc1c(F)ccc2cc(O)cc(-c3ncc4c(N5CC6CCC(C5)N6)nc(OCC56CCCN5CC(F)C6)nc4c3F)c12 (centres undefined)	101% and 98%	81.7% and 90.2%	88.5% and 86.4%	85% and 85.9%	86.7% and 68%	59% and 77.1%	< 5.00													
C=C(F)C(=O)N1CCN(c2nc(OCC3CCCN3C)nc3c2CCN(c2cccc4cccc(Cl)c24)C3)CC1CC#N (centres undefined)	91.8% and 102%	113% and 96.7%	109% and 106%	73.5% and 108%	85.6% and 87.4%	3.02% and 4.54%	5.31 and 5.27													
C=CC(=O)N1CCN(c2nc(=O)n(-c3c(C)ccnc3C(C)C)c3nc(-c4c(O)cccc4F)c(F)cc23)C(C)C1 (centres undefined)	98.7% and 109%	72.6% and 98%	78.3% and 113%	96.4% and 111%	126% and 111%	103%	< 5.00													
C=CC(=O)Nc1cc(Nc2nccc(-c3cn(C)c4ccccc34)n2)c(OC)cc1N(C)CCN(C)C							6.86 and 7.10	106% and 100%	83.4% and 96.4%	100% and 92.1%	90.3% and 81.1%	57.1% and 43.5%	35.3% and 33.1%							
CC(=O)O[C@H]1C(=O)[C@@]2(C)[C@H]([C@H](OC(=O)c3ccccc3)[C@]3(O)C[C@H](OC(=O)[C@H](O)[C@@H](NC(=O)c4ccccc4)c4ccccc4)C(C)=C1C3(C)C)[C@]1(OC(C)=O)CO[C@@H]1C[C@@H]2O	12.7% and 12%	12.4% and 12.9%	10.1% and 12.3%	9.86% and 10.8%	13.6% and 14.1%	16% and 16.4%	> 7.50													
CC(C)CC(NC(=O)C(Cc1ccccc1)NC(=O)c1cnccn1)B(O)O (centres undefined)							8.30 and 8.39	107% and 103%	68% and 61.1%	27% and 19.8%	10.3% and 6.71%	6.69% and 3.3%	2.39% and 1.64%							
CC(CO)NC(=O)c1cc(-c2ccc(Cl)cc2)nn(-c2cnn(C)c2)c1=O (centres undefined)	110% and 92.8%	94.5% and 72.6%	91.5% and 92.9%	89.1% and 89.9%	106% and 95.8%	78.1% and 85.5%	< 5.00													
CC(Nc1ccc2c(c1)OCCn1cc(N3C(=O)OCC3C(F)F)nc1-2)C(N)=O (centres undefined)	77.3% and 57.6%	36% and 29.8%	16.3% and 11.6%	8.54% and 7.09%	6.58% and 6.55%	4.15% and 4.2%	7.17 and 7.36													
CC1(C)CCC(CN2CCN(c3ccc(C(=O)NS(=O)(=O)c4ccc(NCC5CCOCC5)c([N+](=O)[O-])c4)c(Oc4cnc5[nH]ccc5c4)c3)CC2)=C(c2ccc(Cl)cc2)C1	121% and 110%	89.1% and 75.1%	99.5% and 103%	89.8% and 80.3%	101% and 86.2%	10.7% and 79.9%	5.22 and < 5.00													
CC1COCCN1c1cc(C2(S(C)(=N)=O)CC2)nc(-c2ccnc3[nH]ccc23)n1 (centres undefined)	102% and 109%	94.1% and 75.7%	87.9% and 82.8%	89.5% and 69.8%	35.7% and 35%	21.4% and 20.1%	5.63 and 5.72													
CCCS(=O)(=O)Nc1ccc(F)c(C(=O)c2c[nH]c3ncc(-c4ccc(Cl)cc4)cc23)c1F	111% and 94.5%	110% and 95%	109% and 117%	138% and 127%	144% and 134%	59.8% and 57%	< 5.00													
CCN1CCN(Cc2ccc(Nc3ncc(F)c(-c4cc(F)c5nc(C)n(C(C)C)c5c4)n3)nc2)CC1	90.5% and 66.1%	61.9% and 40.7%	40.3% and 33.4%	44% and 39.1%			6.70 and 7.19							104% and 92.1%	74.8% and 70.1%					
CCc1c2c(nc3ccc(O)cc13)-c1cc3c(c(=O)n1C2)COC(=O)[C@]3(O)CC	33.3% and 33.9%	26.8% and 28.3%	20.4% and 16.5%	5.13% and 2.88%			8.48 and 8.33							51.5% and 55.3%	42% and 40.3%					
CNC(=O)c1ccc(Nc2nc(OC3CCCC3)c3c(-c4ccc5nc(C)oc5c4)c[nH]c3n2)c(OC)c1	91.6% [middle of 12 runs]	46.5% [middle of 12 runs]	37.7% [middle of 12 runs]	31.2% [middle of 12 runs]	27.4% [middle of 12 runs]	27.3% [middle of 12 runs]										96.4 nM [middle of 12 runs]				
COC1C=CCC(C)C(C)S(=O)(=O)NC(=O)c2ccc3c(c2)N(CC2CCC21)CC1(CCCc2cc(Cl)ccc21)CO3 (centres undefined)	93.3% and 85.4%	112% and 93.6%	112%	123% and 108%	125% and 110%	26.2% and 28.4%	5.14 and 5.15													
COc1c(OCCCN2CCOCC2)ccc2c3n(c(=NC(=O)c4cnc(N)nc4)nc12)CCN3	16.1% and 11.7%	5% and 4.43%	2.63% and 3%	2.47% and 2.32%			8.15 and 8.25							74.2% and 71.6%	39.2% and 27.7%					
Cn1ncnc1[C@H]1c2n[nH]c(=O)c3cc(F)cc(c23)N[C@@H]1c1ccc(F)cc1	113% and 106%	102% and 83.5%					< 7.00							103% and 102%	85.5% and 93.6%		101% and 96.4%	93.3% and 90.1%		
NC(=O)C(=Cn1cnc(-c2cc(C(F)(F)F)cc(C(F)(F)F)c2)n1)c1cncnc1							7.54 and 7.74			73.8% and 67.8%	49.3% and 36.5%	27.8% and 21.1%	21.7% and 27.9%						25.6% and 28.4%	23.2% and 20.4%
Nc1ccccc1NC(=O)c1ccc(CNC(=O)OCc2cccnc2)cc1	112% and 117%	102% and 93.9%	97.4% and 104%	89.9% and 98.1%	61.6% and 70.6%	31.1% and 34.7%	5.29 and 5.21													
Nc1ccn(C2OC(CO)C(O)C2(F)F)c(=O)n1 (centres undefined)	53.5% and 66.5%	28.6% and 26%	22.5% and 22.4%	24.3% and 26%	25.1% and 29.9%	29.4% and 29.8%	7.43 and 7.29													
O=C(c1cc(Cc2n[nH]c(=O)c3ccccc23)ccc1F)N1CCN(C(=O)C2CC2)CC1	100% and 92.1%	81.1% and 72%	103% and 91.9%	89.3% and 89.4%	96.2% and 123%	86.3% and 79.1%	< 5.00													
O=c1[nH]cc(F)c(=O)[nH]1	94.6% and 72.3%	93.9% and 80.7%	56.5% and 62.8%	38% and 36.6%	36.2% and 32.5%	29.7% and 25.7%	6.34 and 6.25													
